Read-outs that look alike come from different tables or passages of the source.
Experiments:
phospholipid in plasma = test: Phospholipid in plasma of rabbits fed high fat feed; type: in vivo, male white Japanese rabbits; conditions: for Phospholipid concentration, effect in words: vs High fat feed + Vehicle, up to 9 weeks; for Phospholipid concentration in plasma: ± standard error
Procedure: (§1) In this experiment, male white Japanese rabbits (5 to 7 rabbits/group) were used. The high fat feed was prepared by adding 1% cholesterol and 6% coconut oil to the solid feed (Oriental Yeast Co., Ltd., RC-4).
(§2) Separately, in the normal feed group, each rabbit was given normal solid feed (RC-4) (100 g/day) and a vehicle (tragacanth solution) orally.

[1] = system: total cholesterol in plasma; test: Total cholesterol in plasma of rabbits fed high fat feed; type: in vivo, male white Japanese rabbits; conditions: for Total cholesterol concentration, effect in words: vs High fat feed + Vehicle, up to 9 weeks; for Total cholesterol concentration in plasma: ± standard error
Procedure: as §1, §2

[2] = Hypotensive activity at the dosages of the experiment; type: in vivo; conditions: at 30 (maleate of Compound A), 50 (diltiazem), 3 (prazosin) mg/kg/day, oral
[3] = system: cholesterol amount in aortas; test: Cholesterol amount in the aorta of rabbits fed high fat feed (atherosclerosis); type: in vivo, male white Japanese rabbits; conditions: 9 weeks; for Cholesterol amount in aortas: high fat feed, oral once a day: maleate of Compound A 30, diltiazem 50, prazosin 3 mg/kg/day; for Cholesterol amount in the aorta, effect in words: vs High fat feed + Vehicle
Procedure: as §1, §2
(§3) Nine weeks after the beginning of administration, each rabbit was killed with bleeding under pentobarbital-anesthesia, and the aorta was taken out. The cholesterol amount in the aorta was determined, and the lipid deposition at the aortic inner wall was stained and the area of the stained parts was measured.

atherosclerosis = conditions: cited from earlier work
[4] = system: lipid deposition at aortic inner wall; test: Area of lipid deposition at aortic inner wall of rabbits fed high fat feed (atherosclerosis); type: in vivo, male white Japanese rabbits; conditions: 9 weeks; for Area of lipid deposition at aortic inner wall: high fat feed, percentage of whole area of aortic inner wall, oral once a day: maleate of Compound A 30, diltiazem 50, prazosin 3 mg/kg/day; for Area of lipid deposition at the aortic inner wall, effect in words: vs High fat feed + Vehicle
Procedure: as §1, §2, §3

[5] = system: free cholesterol in plasma; test: Free cholesterol in plasma of rabbits fed high fat feed; type: in vivo, male white Japanese rabbits; conditions: for Free cholesterol concentration, effect in words: vs High fat feed + Vehicle, up to 9 weeks; for Free cholesterol concentration in plasma: ± standard error
Procedure: as §1, §2

beagles = conditions: dog, in vivo
[6] = Acute toxicity (LD50), oral, mice; conditions: mouse, in vivo
rats = conditions: rat, in vivo
α1-receptor = conditions: Jpn. J. Pharmacol., 52 (suppl. 1), 212 (1990); cited from earlier work
[7] = JP Kokoku 58341/1991 (U.S. Pat. No. 4,749,703); cited from earlier work
blood lipid = conditions: cited from earlier work
[8] = week 0, high fat feed, before treatment
[9] = week 6, high fat feed, oral once a day: maleate of Compound A 30, diltiazem 50, prazosin 3 mg/kg/day
[10] = week 8, high fat feed, oral once a day: maleate of Compound A 30, diltiazem 50, prazosin 3 mg/kg/day
[11] = week 9, high fat feed, oral once a day: maleate of Compound A 30, diltiazem 50, prazosin 3 mg/kg/day

COc1ccc([C@@H]2Sc3ccccc3N(CCN(C)C)C(=O)[C@@H]2OC(C)=O)cc1 [diltiazem]
Phospholipid concentration, effect in words (phospholipid in plasma): no decrease | Phospholipid concentration in plasma (phospholipid in plasma; [8]): 454 ± 72 mg/dL | Phospholipid concentration in plasma (phospholipid in plasma; [9]): 931 ± 50 mg/dL | Phospholipid concentration in plasma (phospholipid in plasma; [10]): 825 ± 116 mg/dL | Phospholipid concentration in plasma (phospholipid in plasma; [11]): 718 mg/dL | Total cholesterol concentration, effect in words [1]: no decrease | Total cholesterol concentration in plasma [1, 8]: 1127 ± 202 mg/dL | Total cholesterol concentration in plasma [1, 9]: 2297 ± 127 mg/dL | Total cholesterol concentration in plasma [1, 10]: 2106 ± 293 mg/dL | Total cholesterol concentration in plasma [1, 11]: 1626 mg/dL | hypotensive activity [2]: show hypotensive activity | Cholesterol amount in aortas [3]: 509.3 ± 240.1 mg/kg of protein | Cholesterol amount in the aorta, effect in words [3]: not decreased at all | atherosclerosis inhibitory activity (atherosclerosis; Atherosclerosis, 51, 343-344 (1984)): no inhibitory activity | atherosclerosis inhibitory activity (atherosclerosis; rabbits, Lab. Invest. 49, 154-158 (1983)): shows the atherosclerosis inhibitory activity | Area of lipid deposition at aortic inner wall [4]: 45.2% | Area of lipid deposition at the aortic inner wall, effect in words [4]: not decreased at all | Free cholesterol concentration, effect in words [5]: no decrease | Free cholesterol concentration in plasma [5, 8]: 318 ± 57 mg/dL | Free cholesterol concentration in plasma [5, 9]: 660 ± 42 mg/dL | Free cholesterol concentration in plasma [5, 10]: 673 ± 96 mg/dL | Free cholesterol concentration in plasma [5, 11]: 486 mg/dL

O=C(CCCN1CCN(c2ccc(F)cc2)CC1)NC1c2ccccc2CSc2ccccc21 (stereo not shown) [maleate of Compound A]
Phospholipid concentration, effect in words (phospholipid in plasma): significantly decreased from 6 weeks after the beginning of the administration | Total cholesterol concentration, effect in words [1]: significantly decreased from 8 weeks after the beginning of administration | toxicity by prolonged administration (beagles): no significant toxicity was observed | hypotensive activity [2]: show hypotensive activity | LD50 [6]: > 500 mg/kg | Cholesterol amount in the aorta, effect in words [3]: significantly decreased | Area of lipid deposition at the aortic inner wall, effect in words [4]: also decreased | Free cholesterol concentration, effect in words [5]: significantly decreased from 6 weeks after the beginning of the administration | toxicity by prolonged administration (rats): no significant toxicity was observed

O=C(CCCN1CCN(c2ccc(F)cc2)CC1)NC1c2ccccc2CSc2ccccc21 (stereo not shown) [Compound A]
Phospholipid concentration in plasma (phospholipid in plasma; [8]): 452 ± 42 mg/dL | Phospholipid concentration in plasma (phospholipid in plasma; [9]): 678 ± 70 mg/dL | Phospholipid concentration in plasma (phospholipid in plasma; [10]): 529 ± 66 mg/dL | Phospholipid concentration in plasma (phospholipid in plasma; [11]): 489 mg/dL | Total cholesterol concentration in plasma [1, 8]: 1161 ± 110 mg/dL | Total cholesterol concentration in plasma [1, 9]: 1595 ± 136 mg/dL | Total cholesterol concentration in plasma [1, 10]: 1074 ± 162 mg/dL | Total cholesterol concentration in plasma [1, 11]: 1070 mg/dL | α1-receptor blocking activity (α1-receptor): have α1 -receptor blocking activity | Cholesterol amount in aortas [3]: 234.4 ± 39.4 mg/kg of protein | calcium antagonistic activity [7]: potent calcium antagonistic activity | Area of lipid deposition at aortic inner wall [4]: 35.2% | Free cholesterol concentration in plasma [5, 8]: 346 ± 34 mg/dL | Free cholesterol concentration in plasma [5, 9]: 503 ± 43 mg/dL | Free cholesterol concentration in plasma [5, 10]: 330 ± 56 mg/dL | Free cholesterol concentration in plasma [5, 11]: 306 mg/dL

COc1cc2nc(N3CCN(C(=O)c4ccco4)CC3)nc(N)c2cc1OC [prazosin]
Phospholipid concentration, effect in words (phospholipid in plasma): no decrease | Phospholipid concentration in plasma (phospholipid in plasma; [8]): 474 ± 22 mg/dL | Phospholipid concentration in plasma (phospholipid in plasma; [9]): 1240 ± 94 mg/dL | Phospholipid concentration in plasma (phospholipid in plasma; [10]): 937 ± 112 mg/dL | Phospholipid concentration in plasma (phospholipid in plasma; [11]): 803 mg/dL | Total cholesterol concentration, effect in words [1]: no decrease | Total cholesterol concentration in plasma [1, 8]: 1201 ± 45 mg/dL | Total cholesterol concentration in plasma [1, 9]: 3048 ± 236 mg/dL | Total cholesterol concentration in plasma [1, 10]: 2082 ± 194 mg/dL | Total cholesterol concentration in plasma [1, 11]: 1999 mg/dL | hypotensive activity [2]: show hypotensive activity | α1-receptor blocking activity (α1-receptor): having α1 -receptor blocking activity | Cholesterol amount in aortas [3]: 372.8 ± 63.9 mg/kg of protein | Cholesterol amount in the aorta, effect in words [3]: not decreased at all | blood lipid decreasing activity (blood lipid; Prog. Medicine 3, 1517-1525 (1983)): no blood lipid decreasing activity | blood lipid decreasing activity (blood lipid; human being, Am. J. Medicine, 76 (suppl. 2A), 79-84 (1984)): shows blood lipid decreasing activity | Area of lipid deposition at aortic inner wall [4]: 56.7% | Area of lipid deposition at the aortic inner wall, effect in words [4]: not decreased at all | Free cholesterol concentration, effect in words [5]: no decrease | Free cholesterol concentration in plasma [5, 8]: 368 ± 22 mg/dL | Free cholesterol concentration in plasma [5, 9]: 916 ± 69 mg/dL | Free cholesterol concentration in plasma [5, 10]: 740 ± 96 mg/dL | Free cholesterol concentration in plasma [5, 11]: 584 mg/dL

Reference: US5527801A, “Ameliorant for blood lipid metabolism” (Dainippon Pharmaceutical Co., Ltd., priority 1991, dated 1996)
